Test results taken from US9408393B2, “Bismuth-thiols as antiseptics for agricultural, industrial and other uses” (Microbion Corporation, priority 2010, dated 2016).

Experiments:
Mycobacterium smegmatis = assay: Single-point BisEDT-antibiotic combination FICI; format: cell-based; conditions: Msmeg 817
S. aureus = assay: Contaminated open fracture, rat femur critical defect model; format: in vivo; conditions: BT gel 5 mg/ml, 1 ml in defect, with Cefazolin 5 mgKg^−1 s.c. twice daily 3 days, day 14
Description: Standard errors of the mean are shown as error bars. Animals euthanized early are not excluded from the analysis, however samples from one animal in group 2 have been excluded due to gross contamination.
The aim of this study was to determine whether BTs will reduce infection in a contaminated open fracture model either on their own or with antibiotics. The contaminated rat femur critical defect model is a well-accepted model and was used for the experiments described in this Example. This model offers a standardized model for comparing various possible treatments and their effects on reducing infection and/or improving healing.
Three formulations of microparticulate BTs were produced in a clinically useful hydrogel gel form as described herein.
Two treatment arms were used: in the first arm, BT was used singularly; in the second arm BT was used in conjunction with a systemic antibiotic (ABx).
Six hours after inoculation with S. aureus, the wound was debrided, irrigated with saline and 1 ml of BT gel inserted within the defect.
Six hours after inoculation with S. aureus, the wound was debrided, irrigated with saline and 1 ml of BT gel added inserted within the defect. The antibiotic used was Cefazolin at a dose equivalent to 5 mgKg^−1 delivered via sub-cutaneous injection twice daily for a total of 3-days following the injury. The first dose was administered immediately prior to debridement.
Six hours after inoculation with S. aureus, the wound was debrided and irrigated with saline. The control animals were also treated with Cefazolin as per the regime described above.
The procedure for the in vivo rat injury model was performed as described by Chen et al. (2002 J. Orthop. Res. 20:142; 2005 J. Orthop. Res. 23:816; 2006 J. Bone Joint Surg. Am. 88:1510; 2007 J. Orthop. Trauma 21:693). The rats were anesthetized and prepped for surgery. The anterolateral aspect of the femoral shaft was exposed through a 3-cm incision. The periosteum and attached muscle was stripped from the bone. A polyacetyl plate (27×4×4 mm) was placed on the anterolateral surface of the femur. The plates were predrilled to accept 0.9-mm diameter threaded Kirschner wires. The bases of these plates were formed to fit the contour of the femoral shaft. Pilot holes were drilled through both cortices of the femur using the plate as a template and threaded Kirschner wire was inserted through the plate and femur. The notches that were 6 mm apart on the plate served as a guide for bone removal. A small oscillating saw was used to create the defect while the tissue was cooled by continuous irrigation in an effort to prevent thermal damage.
Several groups of 10 animals each were inoculated with 1×10^5 CFU of S. aureus and treated with BT alone or in combination with antibiotics 6 hours post-inoculation as described above. The groups were as follows: Bis-EDT gel; MB-11 gel; MB-8-2 gel; Bis-EDT gel & Abx; MB-11 gel & Abx; MB-8-2 gel & Abx; Control (Abx alone).
Animals were euthanized 14 days after surgery and bone and hardware sent for microbiological analysis, the results of which are shown in FIG. 7.

P. aeruginosa = assay: Checkerboard broth microdilution MIC and FICI; format: cell-based, Pseudomonas aeruginosa; conditions: for MIC (μg/mL) Alone: compound alone
[1] = system: Gram-negative pathogenic bacteria; assay: Checkerboard broth microdilution MIC and FICI; format: cell-based; conditions: for MIC (μg/mL) Alone: compound alone; for FICI, Fractional Inhibitory Concentration Index: in combination with Cefotaxime
Procedure: The effects of combinations of microparticulate Bis-EDT and four Bis-EDT analogs prepared as described above, and other agents against representative strains of several Gram-negative pathogenic bacteria were tested. A modification of a common laboratory method was used to determine synergism (FICI≦0.5), enhancement (0.5<FICI≦1.0), antagonism (FICI>4.0) and indifference (1.0<FICI≦4.0) used fractional inhibitory concentrations (FICs) and FIC indices (FICI) (Eliopoulos G and R Moellering. 1991. Antimicrobial combinations. In Antibiotics in Laboratory Medicine, Third Edition, edited by V Lorian. Williams and Wilkins, Baltimore, Md., pp. 432-492; Odds, 2003 J. Antimicrob. Chemother. 52(1):1). The checkerboard technique was used to determine FIC indices and was employed in this study.
Stock solutions of all test articles were prepared at 40× the final target concentration in the appropriate solvent. […] The final drug concentrations in the FIC assay plates were set to bracket the MIC value of each agent for each test organism, unless the strain was totally resistant to the test agent. […] The test organisms were originally received from clinical sources, or from the American Type Culture Collection. Upon receipt, the isolates were streaked onto Tryptic Soy Agar II (TSA). Colonies were harvested from these plates and a cell suspension was prepared in an appropriate broth growth medium containing cryoprotectant. Aliquots were then frozen at −80° C. The frozen seeds of the organisms to be tested in a given assay were thawed, streaked for isolation onto TSA plates, and incubated at 35° C. All organisms were tested in Mueller Hinton II Broth (Becton Dickinson, Lot No. 9044411). The broth was prepared at 1.05× normal weight/volume to offset the 5% volume of the drugs in the final test plates.
Minimal Inhibitory Concentration (MIC) values were previously determined using the broth microdilution method for aerobic bacteria (Clinical and Laboratory Standards Institute (CLSI). Methods for Dilution Antimicrobial Susceptibility Tests for Bacteria That Grow Aerobically; Approved Standard—Eighth Edition. CLSI document M07-A8 [ISBN 1-56238-689-1]. Clinical and Laboratory Standards Institute, 940 West Valley Road, Suite 1400, Wayne, Pa. 19087-1898 USA, 2009.).
FIC values were determined using a broth microdilution method previously described (Sweeney et al., 2003 Antimicrob. Agents Chemother. 47(6):1902-1906). To prepare the test plates, automated liquid handlers (Multidrop 384, Labsystems, Helsinki, Finland; Biomek 2000 and Multimek 96, Beckman Coulter, Fullerton Calif.) were used to conduct serial dilutions and liquid transfers.
The appropriate wells of standard 96-well microdilution plates (Falcon 3918) were filled with 150 μL of the appropriate solvent in columns 2-12 using the Multidrop 384. Three hundred microliters of each secondary test drug was added to each well in Column 1 of the plates. These plates were used to prepare the drug “mother plates” which provided the serial drug dilutions for the drug combination plates. The Biomek 2000 was used to transfer 150 μL of each secondary drug solution (40×) from the wells in Column 1 of the mother plate and to make eleven 2-fold serial dilutions. Mother plates of Bis-EDT (and analogs) were serial diluted top to bottom by hand, using a multichannel pipette. Two mother plates, one for each secondary drug and one for Bis-EDT (or analogs), were combined to form a “checkerboard” pattern by transfer of equal volumes (using a multi-channel pipette) to the drug combination plate. Row H and Column 12 each contained serial dilutions of one of the agents alone for determination of the MIC.
The “daughter plates” were loaded with 180 μL of test medium using the Multidrop 384. Then, the Multimek 96 was used to transfer 10 μL of drug solution from each well of the drug combination mother plate to each corresponding well of the daughter plate in a single step.

S. aureus strains = assay: In vitro inhibition from PMMA cement bead vehicle; format: cell-based, Staphylococcus aureus; conditions: with and without Tobramicin and Vancomycin
Bukholderia multivorans = assay: Single-point BisEDT-antibiotic combination FICI; format: cell-based; conditions: Bmult 5665
Escherichia coli = assay: Single-point BisEDT-antibiotic combination FICI; format: cell-based; conditions: EC 2232
Enterococcus faecalis = assay: Single-point BisEDT-antibiotic combination FICI; format: cell-based; conditions: E Fc 3121
Klebsiella pneumoniae = assay: Single-point BisEDT-antibiotic combination FICI; format: cell-based; conditions: KP 1231
[2] = system: Streptococcus pneumoniae (SP, PRSP); assay: Single-point BisEDT-antibiotic combination FICI; conditions: PRSP 5348
Burkholderia cepacia = assay: Single-point BisEDT-antibiotic combination FICI; format: cell-based; conditions: Bcep 1756
[3] = system: Staphylococcus aureus (SA, MRSA); assay: Single-point BisEDT-antibiotic combination FICI; format: cell-based; conditions: MRSA 773
Acinetobacter baumanii = assay: Single-point BisEDT-antibiotic combination FICI; format: cell-based; conditions: Abau 2594
Pseudomonas aeruginosa = assay: Single-point BisEDT-antibiotic combination FICI; format: cell-based; conditions: PA 1380
[4] = P. aeruginosa 103, in combination with Cefepime
[5] = P. aeruginosa 103, in combination with Cefotaxime
[6] = P. aeruginosa 1381, in combination with Cefepime
[7] = P. aeruginosa 1384, in combination with Cefepime
[8] = P. aeruginosa 1474, in combination with Cefepime
[9] = P. aeruginosa 1479, in combination with Cefepime
[10] = P. aeruginosa 2566, in combination with Cefepime
[11] = P. aeruginosa 2568, in combination with Cefepime

Capreomycin
FICI, single-point BisEDT-antibiotic combination (Mycobacterium smegmatis): 0.75

bismuth pyrithione/butanedithiol [MB-8-2]
S. aureus infection detected on hardware, effect on Cefazolin activity (S. aureus): enhanced antibiotic activity
S. aureus infection of injured bone, effect on Cefazolin activity (S. aureus): enhanced
MIC (μg/mL) Alone (P. aeruginosa; P. aeruginosa 103): 2 µg/mL
FICI, Fractional Inhibitory Concentration Index (P. aeruginosa; [4]): 1.11
FICI, Fractional Inhibitory Concentration Index (P. aeruginosa; [5]): 1.11
MIC (μg/mL) Alone (P. aeruginosa; P. aeruginosa 1381): 2 µg/mL
FICI, Fractional Inhibitory Concentration Index (P. aeruginosa; [6]): 1.23
MIC (μg/mL) Alone (P. aeruginosa; P. aeruginosa 1384): 2 µg/mL
FICI, Fractional Inhibitory Concentration Index (P. aeruginosa; [7]): 0.80
MIC (μg/mL) Alone (P. aeruginosa; P. aeruginosa 1474): 2 µg/mL
FICI, Fractional Inhibitory Concentration Index (P. aeruginosa; [8]): 1.11
MIC (μg/mL) Alone (P. aeruginosa; P. aeruginosa 1479): 2 µg/mL
FICI, Fractional Inhibitory Concentration Index (P. aeruginosa; [9]): 1.23
MIC (μg/mL) Alone (P. aeruginosa; P. aeruginosa 2566): 2 µg/mL
FICI, Fractional Inhibitory Concentration Index (P. aeruginosa; [10]): 1.23
MIC (μg/mL) Alone (P. aeruginosa; P. aeruginosa 2568): 2 µg/mL
FICI, Fractional Inhibitory Concentration Index (P. aeruginosa; [11]): 0.98
MIC (μg/mL) Alone ([1]; K. pneumoniae 1346): 0.5 µg/mL
FICI, Fractional Inhibitory Concentration Index ([1]; K. pneumoniae 1346): 1.37
MIC (μg/mL) Alone ([1]; K. pneumoniae 1355): 0.5 µg/mL
FICI, Fractional Inhibitory Concentration Index ([1]; K. pneumoniae 1355): 1.37
MIC (μg/mL) Alone ([1]; K. pneumoniae 2238): 0.5 µg/mL
FICI, Fractional Inhibitory Concentration Index ([1]; K. pneumoniae 2238): 1.37
MIC (μg/mL) Alone ([1]; K. pneumoniae 2541): 1 µg/mL
FICI, Fractional Inhibitory Concentration Index ([1]; K. pneumoniae 2541): 1.12
MIC (μg/mL) Alone ([1]; K. pneumoniae 2546): 1 µg/mL
MIC (μg/mL) Alone ([1]; K. pneumoniae 2549): 1 µg/mL
FICI, Fractional Inhibitory Concentration Index ([1]; K. pneumoniae 2549): 1.12
Effect on S. aureus strains in vitro from PMMA cement beads (S. aureus strains): inhibitory effects

NNC(=O)c1ccncc1 [Isoniazid]
FICI, single-point BisEDT-antibiotic combination (Mycobacterium smegmatis): 0.88

bismuth pyrithione/ethanedithiol [MB-11]
S. aureus infection detected on hardware, effect on Cefazolin activity (S. aureus): enhanced antibiotic activity
S. aureus infection of injured bone, effect on Cefazolin activity (S. aureus): enhanced
MIC (μg/mL) Alone (P. aeruginosa; P. aeruginosa 103): 1 µg/mL
FICI, Fractional Inhibitory Concentration Index (P. aeruginosa; [4]): 0.12
FICI, Fractional Inhibitory Concentration Index (P. aeruginosa; [5]): 1.12
MIC (μg/mL) Alone (P. aeruginosa; P. aeruginosa 1381): 1 µg/mL
FICI, Fractional Inhibitory Concentration Index (P. aeruginosa; [6]): 1.12
MIC (μg/mL) Alone (P. aeruginosa; P. aeruginosa 1384): 1 µg/mL
FICI, Fractional Inhibitory Concentration Index (P. aeruginosa; [7]): 1.12
MIC (μg/mL) Alone (P. aeruginosa; P. aeruginosa 1474): 0.5 µg/mL
FICI, Fractional Inhibitory Concentration Index (P. aeruginosa; [8]): 1.12
MIC (μg/mL) Alone (P. aeruginosa; P. aeruginosa 1479): 0.5 µg/mL
FICI, Fractional Inhibitory Concentration Index (P. aeruginosa; [9]): 0.87
MIC (μg/mL) Alone (P. aeruginosa; P. aeruginosa 2566): 0.5 µg/mL
FICI, Fractional Inhibitory Concentration Index (P. aeruginosa; [10]): 0.93
MIC (μg/mL) Alone (P. aeruginosa; P. aeruginosa 2568): 0.5 µg/mL
FICI, Fractional Inhibitory Concentration Index (P. aeruginosa; [11]): 0.87
MIC (μg/mL) Alone ([1]; K. pneumoniae 1346): 0.5 µg/mL
FICI, Fractional Inhibitory Concentration Index ([1]; K. pneumoniae 1346): 1.37
MIC (μg/mL) Alone ([1]; K. pneumoniae 1355): 0.5 µg/mL
FICI, Fractional Inhibitory Concentration Index ([1]; K. pneumoniae 1355): 1.87
MIC (μg/mL) Alone ([1]; K. pneumoniae 2238): 0.5 µg/mL
FICI, Fractional Inhibitory Concentration Index ([1]; K. pneumoniae 2238): 1.37
MIC (μg/mL) Alone ([1]; K. pneumoniae 2541): 0.5 µg/mL
FICI, Fractional Inhibitory Concentration Index ([1]; K. pneumoniae 2541): 0.73
MIC (μg/mL) Alone ([1]; K. pneumoniae 2546): 0.5 µg/mL
FICI, Fractional Inhibitory Concentration Index ([1]; K. pneumoniae 2546): 1.37
MIC (μg/mL) Alone ([1]; K. pneumoniae 2549): 0.5 µg/mL
FICI, Fractional Inhibitory Concentration Index ([1]; K. pneumoniae 2549): 1.37
Effect on S. aureus strains in vitro from PMMA cement beads (S. aureus strains): inhibitory effects

[H]/N=C(/N)N[C@H]1[C@H](O)[C@@H](O)[C@H](O[C@@H]2O[C@@H](C)[C@](O)(C=O)[C@H]2O[C@@H]2O[C@@H](CO)[C@H](O)[C@@H](O)[C@@H]2NC)[C@@H](N/C(N)=N\[H])[C@@H]1O [Streptomycin]
FICI, single-point BisEDT-antibiotic combination (Bukholderia multivorans): 1.12
FICI, single-point BisEDT-antibiotic combination (Escherichia coli): 1.29
FICI, single-point BisEDT-antibiotic combination (Enterococcus faecalis): 0.61
FICI, single-point BisEDT-antibiotic combination (Klebsiella pneumoniae): 1.04
FICI, single-point BisEDT-antibiotic combination (Mycobacterium smegmatis): 1.13
FICI, single-point BisEDT-antibiotic combination [2]: 0.66
FICI, single-point BisEDT-antibiotic combination (Burkholderia cepacia): 1.37
FICI, single-point BisEDT-antibiotic combination [3]: 0.95
FICI, single-point BisEDT-antibiotic combination (Acinetobacter baumanii): 2.62
FICI, single-point BisEDT-antibiotic combination (Pseudomonas aeruginosa): 1.98
